One test has as its system Staphylococcus aureus. In words: Antimicrobial activity against methicillin-resistant Staphylococcus aureus by microdilution method. Type of test: functional. (Broth dilution looks for growth in wells or tubes with falling amounts of substance.)
Test [1] relates to Mycolicibacterium smegmatis. In words: Antimicrobial activity against Mycobacterium smegmatis by microdilution method. Type of test: functional.

The record followed here is ChEMBL document CHEMBL1150668, “Antimicrobial resveratrol tetramers from the stem bark of Vatica oblongifoliassp. oblongifolia” (2002).

Converted amounts (≈) assume the structure as drawn.

With `Oc1ccc([C@@H]2c3c(O)cc(O)cc3[C@@H]3c4c(cc(O)cc4[C@H]2[C@H]2c4cc(O)cc5c4[C@@H](c4cc(O)cc(O)c4[C@@H]2c2ccc(O)cc2)[C@H](c2ccc(O)cc2)O5)O[C@H]3c2ccc(O)cc2)cc1` [HOPEAPHENOL A], the results for the MIC (in the test with Staphylococcus aureus; in test [1]) were 100 mg/L (≈ 110 µM) and 50 mg/L (≈ 55.1 µM), respectively.

Take `Oc1ccc([C@H]2c3c(O)cc(O)cc3[C@@H]3c4c(cc(O)cc4[C@H]2[C@H]2c4cc(O)cc5c4[C@@H](c4cc(O)cc(O)c4[C@@H]2c2ccc(O)cc2)[C@H](c2ccc(O)cc2)O5)O[C@H]3c2ccc(O)cc2)cc1` [ISOHOPEAPHENOL A]: the MIC (against Staphylococcus aureus; in test [1]) was > 100 mg/L in each case.

In test [1], `NNC(=O)c1ccncc1` [ISONIAZID] came in with an MIC of 0.8 mg/L (≈ 5.83 µM). Consider `CN[C@H](CC(C)C)C(=O)N[C@H]1C(=O)N[C@@H](CC(N)=O)C(=O)N[C@H]2C(=O)N[C@H]3C(=O)N[C@H](C(=O)N[C@H](C(=O)O)c4cc(O)cc(O)c4-c4cc3ccc4O)[C@H](O)c3ccc(c(Cl)c3)Oc3cc2cc(c3O[C@@H]2O[C@H](CO)[C@@H](O)[C@H](O)[C@H]2O[C@H]2C[C@](C)(N)[C@H](O)[C@H](C)O2)Oc2ccc(cc2Cl)[C@H]1O` [VANCOMYCIN], for which it took 0.8 mg/L (≈ 0.552 µM) to inhibit growth against Staphylococcus aureus (MIC). As for `Oc1ccc([C@@H]2c3c(O)cc(O)cc3[C@@H]3c4c(cc(O)c5c4[C@@H]2[C@H](c2ccc(O)cc2)[C@H]5c2cc(O)cc4c2[C@H](c2cc(O)cc(O)c2)[C@@H](c2ccc(O)cc2)O4)O[C@H]3c2ccc(O)cc2)cc1` [VATICAPHENOL A], the MIC against Staphylococcus aureus is 50 mg/L (≈ 55.1 µM); in test [1], 25 mg/L (≈ 27.6 µM).

The term MIC denotes the least concentration at which growth counts as inhibited. High values mean a need for much substance, low ones inhibition by little substance.
